This is an account of results in patent publication US4464388A, “Use of prostaglandin analogues to treat cytodamage” (priority 1982, dated 1984).

Broadly, the LD50 is the dose at which mortality reaches 50%.

In data set [1] the test system is carbon tetrachloride (CCl4) induced liver damage. Nature of the data set: Effect on carbon tetrachloride (CCl4) induced liver damage (liver cell necrosis type). It counts as in vivo, Male Wistar rats. Particulars: for inhibition in vivo at 0.1 mg/kg / inhibition in vivo at 0.02 mg/kg / inhibition in vivo at 0.5 mg/kg / inhibition in vivo at 0.05 mg/kg / inhibition in vivo at 1 mg/kg / inhibition in vivo at 1.5 mg/kg: Rattus norvegicus, 24 h; for inhibition in vivo at 0.02 mg/kg: 20 μg/kg; for inhibition in vivo at 0.5 mg/kg: 500 μg/kg; for inhibition in vivo at 0.05 mg/kg: 50 μg/kg; for inhibition in vivo at 1 mg/kg: 1000 μg/kg; for inhibition in vivo at 1.5 mg/kg: 1500 μg/kg. The protocol:
Effect on carbon tetrachloride (CCl4) induced liver damage (liver cell necrosis type)
Male Wistar rats weighing 180-220 g were used. Rats were dosed intraperitoneally with CCl4 dissolved in olive oil (5%, w/v) at a volume of 500 μl/kg after 18 hr starvation. The compound under test was administered orally (p.o.) or subcutaneously (s.c.) 6 and 12 hr after CCl4 injection in rats and blood was collected after 24 hr. Plasma glutamic oxaloacetic transaminase (GOT) and glutamic pyruvic transaminase (GPT) activities were determined by ultraviolet absorbance methods (optimised method based on the recommendations of the Deutsche Gesellschaft fur Klinische Chemie). The effects of the compounds tested were assessed by the inhibition rate in comparison with controls. Inhibition rate was calculated by the following formula. [formula] The results obtained are shown in the following Tables 1A and 1B for compounds of the general formula: [drawing 10] wherein R, R^1 and --X--Y--Z-- have the meanings indicated.
In Tables 1A, 1B and 2 to 5 hereinafter the dose shown in the amount given at each administration of the compound under test.

The next data set in a line: Acute toxicity test. Particulars: mouse, in vivo; oral, mice observed for 14 days. As for the experimental part: Male JCL-ICR mice (non SPF mice) from 7 weeks of age were used. The compound under test was dissolved in 5% v/v ethanol containing 0.4% w/v Tween 80 (Tween is a registered trademark) and administered orally to the mice. […] The deaths observed were all within 72 hrs after treatment.

The test system of another data set is artery. Particulars: cited from earlier work.
Data set [2] deals with blood platelet aggregation. Particulars: cited from earlier work.
The mark [3] stands for this setting: po, p.o., 100 μg/kg, plasma GOT after 24 hr, read-out: inhibition rate GOT.
Setting [4] is: po, p.o., 100 μg/kg, plasma GPT after 24 hr, read-out: inhibition rate GPT.
Setting [5] is: sc, s.c., plasma GOT after 24 hr, read-out: inhibition rate GOT.
Where [6] appears, read: sc, s.c., plasma GPT after 24 hr, read-out: inhibition rate GPT.
[7] abbreviates: po, p.o., plasma GOT after 24 hr, read-out: inhibition rate GOT.
Setting [8] is: po, p.o., plasma GPT after 24 hr, read-out: inhibition rate GPT.

Where two headings read alike, the source gives them in different places.

As to `CCCCC1CCC([C@H](O)/C=C/[C@H]2[C@H](O)CC(=O)[C@@H]2CC(=O)CCCCC(=O)OC)C1` (single isomer, unassigned) [Compound 8, 15-(3-Butylcyclopentyl)-16,17,18,19,20-pentanor-6-oxo-PGE1 methyl ester], the inhibition in vivo at 0.1 mg/kg in data set [1] (setting [3]) turned out to be 77.7%; in data set [1] (setting [4]), 73.7%. The inhibition in vivo at 0.02 mg/kg was 44.4% in data set [1] (setting [5]) and 39.3% in data set [1] (setting [6]). Moreover, the LD50 at 336 h in “Acute toxicity test” lay within 10 to 20 mg/kg.

Turning to `CCCC1CCC([C@H](O)/C=C/[C@H]2[C@H](O)CC(=O)[C@@H]2CC(=O)CCCCC(=O)OC)C1` (single isomer, unassigned) [Compound 12, 15-(3-Propylcyclopentyl)-16,17,18,19,20-pentanor-6-oxo-PGE1 methyl ester], the “inhibition rate GOT” value in data set [1] (p.o., 100 μg/kg, plasma GOT after 24 hr) came to 25.4%. For the same compound, the “inhibition rate GPT” value in data set [1] (p.o., 100 μg/kg, plasma GPT after 24 hr) was found to be 22.2%.

For `CCCC1CCC([C@H](O)/C=C/[C@@H]2[C@H]3CC(CCCCC(=O)OC)=N[C@H]3C[C@H]2O)C1` (single isomer, unassigned) [Compound 14, 15-(3-Propylcyclopentyl)-16,17,18,19,20-pentanor-6,9α-nitrilo-PGI1 methyl ester], the inhibition in vivo at 0.5 mg/kg was 39.8% in data set [1] (setting [7]), 20.8% in data set [1] (setting [8]), 68.6% in data set [1] (setting [5]) and 64.2% in data set [1] (setting [6]). The compound further registered an LD50 at 336 h in “Acute toxicity test” of 40 to 100 mg/kg.

As to `CCC1CC([C@H](O)/C=C/[C@H]2[C@H](O)CC(=O)[C@@H]2CC(=O)CCCCC(=O)OC)C1` (stereo partly shown) [Compound 1, 15-(3-Ethylcyclobutyl)-16,17,18,19 20-pentanor-6-oxo-PGE1 methyl ester], the inhibition in vivo at 0.05 mg/kg was found to be 21% in data set [1] (setting [5]) and 0% in data set [1] (setting [6]).

As to `CCCC1CC([C@H](O)/C=C/[C@H]2[C@H](O)CC(=O)[C@@H]2CC(=O)CCCCC(=O)OC)C1` (stereo partly shown) [Compound 2, 15-(3-Propylcyclobutyl)-16,17,18,19,20-pentanor-6-oxo-PGE1 methyl ester], the inhibition in vivo at 0.05 mg/kg in data set [1] (setting [5]) is 52.4%; in data set [1] (setting [6]), 17.3%.

`COC(=O)CCCCC(=O)C[C@H]1C(=O)C[C@@H](O)[C@@H]1/C=C/[C@@H](O)C1CCCC1` [Compound 3, 15-Cyclopentyl-16,17,18,19,20-pentanor-6-oxo-PGE1 methyl ester]: the inhibition in vivo at 0.1 mg/kg in data set [1] (setting [3]) came out at 19%; in data set [1] (setting [4]), 30.5%. The compound further came in with an LD50 at 336 h in the data set “Acute toxicity test” of 10 to 20 mg/kg.

For `CCCC1CCC([C@H](O)/C=C/[C@H]2[C@H](O)CC(=O)[C@@H]2CC(=O)CCCCC(=O)OC)C1` (stereo partly shown) [Compound 4, 15-(3-Propylcyclopentyl)-16,17,18,19,20-pentanor-6-oxo-PGE1 methyl ester], the inhibition in vivo at 0.1 mg/kg in data set [1] (setting [3]) turned out to be 77%; in data set [1] (setting [4]), 51.5%.

In the case of `CCCC1CCC([C@H](O)/C=C/[C@H]2[C@H](O)CC(=O)[C@@H]2CC(=O)CCCCC(=O)O)C1` (stereo partly shown) [Compound 5, 15-(3-Propylcyclopentyl)-16,17,18,19,20-pentanor-6-oxo-PGE1], the inhibition in vivo at 0.1 mg/kg in data set [1] (setting [3]) is 32.6%; in data set [1] (setting [4]) it was 44.5%.

As for `CCCCC1CCC([C@H](O)/C=C/[C@H]2[C@H](O)CC(=O)[C@@H]2CC(=O)CCCCC(=O)OC)C1` (stereo partly shown) [Compound 7, 15-(3-Butylcyclopentyl)-16,17,18,19,20-pentanor-6-oxo-PGE1 methyl ester], the figures for the inhibition in vivo at 0.1 mg/kg in data set [1] (setting [3]) and in data set [1] (setting [4]) were 62.7% and 55.1%, respectively.

As to `COC(=O)CCCCC(=O)C[C@H]1C(=O)C[C@@H](O)[C@@H]1/C=C/[C@@H](O)C1CCC(C)CC1` (stereo partly shown) [Compound 9, 15-(4-Methylcyclohexyl)-16,17,18,19,20-pentanor-6-oxo-PGE1 methyl ester], the inhibition in vivo at 0.1 mg/kg in data set [1] (setting [3]) came to 21%; in data set [1] (setting [4]) it was 0%. For the same compound, the inhibition in vivo at 0.05 mg/kg in data set [1] (setting [5]) is 13.1%; in data set [1] (setting [6]), 8.8%.

Consider `CCC1CCC([C@H](O)/C=C/[C@H]2[C@H](O)CC(=O)[C@@H]2CC(=O)CCCCC(=O)OC)CC1` (stereo partly shown) [Compound 10, 15-(4-Ethylcyclohexyl)-16,17,18,19,20-pentanor-6-oxo-PGE1 methyl ester], for which the inhibition in vivo at 0.05 mg/kg in data set [1] (setting [5]) amounted to 35.6%; in data set [1] (setting [6]), 12.2%.

Turning to `CCCC1CCC([C@H](O)/C=C/[C@H]2[C@H](O)CC(=O)[C@@H]2CC(=O)CCCCC(=O)OC)CC1` (stereo partly shown) [Compound 11, 15-(4-Propylcyclohexyl)-16,17,18,19,20-pentanor-6-oxo-PGE1 methyl ester], the inhibition in vivo at 0.05 mg/kg in data set [1] (setting [5]) turned out to be 48.5%; in data set [1] (setting [6]), 45.1%.

`CCCC1CCC([C@H](O)/C=C/[C@@H]2[C@H]3CC(CCCCC(=O)OC)=N[C@H]3C[C@H]2O)C1` (stereo partly drawn) [Compound 13, 15-(3-Propylcyclopentyl)-16,17,18,19,20-pentanor-6,9α-nitrilo-PGI1 methyl ester]: the values for the inhibition in vivo at 1 mg/kg in data set [1] (setting [7]) and in data set [1] (setting [8]) were 46% and 32.5%, respectively.

As to `CCCCC1CCC([C@H](O)/C=C/[C@@H]2[C@H]3CC(CCCCC(=O)OC)=N[C@H]3C[C@H]2O)C1` (stereo partly drawn) [Compound 15, 15-(3-Butylcyclopentyl)-16,17,18,19,20-pentanor-6,9α-nitrilo-PGI1 methyl ester], the values for the inhibition in vivo at 1 mg/kg in data set [1] (setting [7]) and in data set [1] (setting [8]) were 45.5% and 15.6%, respectively.

Consider `CCCC1CCC([C@H](O)/C=C/[C@@H]2[C@H]3CC(CCCCC(=O)OC)O[C@H]3C[C@H]2O)C1` (stereo partly shown) [Compound 16, 15-(3-Propylcyclopentyl)-16,17,18,19,20-pentanor-PGI1 methyl ester], for which the inhibition in vivo at 1.5 mg/kg was determined as 51% in data set [1] (setting [7]) and 53% in data set [1] (setting [8]).

Turning to `CCCC1CCC([C@H](O)/C=C/[C@@H]2[C@H]3C[C@H](CCCCC(=O)OC)O[C@H]3C[C@H]2O)C1` (stereo partly drawn) [Compound 17, (6S)-15-(3-propylcyclopentyl)-16,17,18,19,20-pentanor-PGI1 methyl ester], the inhibition in vivo at 1 mg/kg worked out at 32.9% in data set [1] (setting [7]) and 32% in data set [1] (setting [8]).

On to `CCCCC[C@H](O)/C=C/[C@H]1O[C@H]2C[C@H](O2)[C@@H]1C/C=C\CCCC(=O)O` [thromboxane A2], for which, in the data set on artery, the “activity on the artery” value is recorded as “contracting activity”. Further, the “effect on blood platelet aggregation” value in data set [2] is listed as “aggregating activity”.
